Columns and labels:
[1] = tested on: Leucine-rich repeat serine/threonine-protein kinase 2 (Homo sapiens), Q5S007 [G2019S]; settings: Compound concentration 1000.0 nM
[2] = molecular target: Citron Rho-interacting kinase (Homo sapiens) (UniProt O14578); settings: Compound concentration 1000.0 nM
[3] = molecular target: Activin receptor type-1B (Homo sapiens) (UniProt P36896); settings: Compound concentration 1000.0 nM
[4] = tested on: Receptor-type tyrosine-protein kinase FLT3 (Homo sapiens), P36888 [D835Y]; settings: Compound concentration 1000.0 nM
[5] = molecular target: Muscarinic acetylcholine receptor M3 (Homo sapiens) (UniProt P20309); settings: Compound concentration 10.0 uM
[6] = tested on: Epidermal growth factor receptor (Homo sapiens), P00533 [UNDEFINED MUTATION]; settings: Compound concentration 1000.0 nM
[7] = molecular target: Ephrin type-A receptor 4 (Homo sapiens) (UniProt P54764); settings: Compound concentration 1000.0 nM
[8] = molecular target: Serine/threonine-protein kinase ULK3 (Homo sapiens) (UniProt Q6PHR2); settings: Compound concentration 1000.0 nM
[9] = molecular target: Calcium-dependent protein kinase 1 (Plasmodium falciparum) (UniProt P62344); settings: Compound concentration 1000.0 nM
Calcium-dependent protein kinase 1 (Plasmodium falciparum), sequence (P62344 2-524 limits assumed): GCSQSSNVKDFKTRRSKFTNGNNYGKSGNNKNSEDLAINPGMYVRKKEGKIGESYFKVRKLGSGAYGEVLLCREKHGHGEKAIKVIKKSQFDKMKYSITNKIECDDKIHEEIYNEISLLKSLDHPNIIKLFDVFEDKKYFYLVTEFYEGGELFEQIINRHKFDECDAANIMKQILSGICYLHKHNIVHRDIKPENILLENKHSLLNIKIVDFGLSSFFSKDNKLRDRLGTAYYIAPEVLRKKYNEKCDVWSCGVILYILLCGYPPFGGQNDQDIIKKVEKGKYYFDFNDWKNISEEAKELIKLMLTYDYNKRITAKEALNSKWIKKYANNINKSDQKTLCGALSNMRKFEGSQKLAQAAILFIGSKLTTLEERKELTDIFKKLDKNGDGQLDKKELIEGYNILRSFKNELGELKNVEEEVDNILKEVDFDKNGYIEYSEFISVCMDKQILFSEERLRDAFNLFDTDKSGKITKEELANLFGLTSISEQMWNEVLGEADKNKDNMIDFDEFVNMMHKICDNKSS

[10] = molecular target: 5'-AMP-activated protein kinase catalytic subunit alpha-2 (Homo sapiens) (UniProt P54646); settings: Compound concentration 1000.0 nM
5'-AMP-activated protein kinase catalytic subunit alpha-2 (Homo sapiens), sequence (P54646 whole entry, looked up): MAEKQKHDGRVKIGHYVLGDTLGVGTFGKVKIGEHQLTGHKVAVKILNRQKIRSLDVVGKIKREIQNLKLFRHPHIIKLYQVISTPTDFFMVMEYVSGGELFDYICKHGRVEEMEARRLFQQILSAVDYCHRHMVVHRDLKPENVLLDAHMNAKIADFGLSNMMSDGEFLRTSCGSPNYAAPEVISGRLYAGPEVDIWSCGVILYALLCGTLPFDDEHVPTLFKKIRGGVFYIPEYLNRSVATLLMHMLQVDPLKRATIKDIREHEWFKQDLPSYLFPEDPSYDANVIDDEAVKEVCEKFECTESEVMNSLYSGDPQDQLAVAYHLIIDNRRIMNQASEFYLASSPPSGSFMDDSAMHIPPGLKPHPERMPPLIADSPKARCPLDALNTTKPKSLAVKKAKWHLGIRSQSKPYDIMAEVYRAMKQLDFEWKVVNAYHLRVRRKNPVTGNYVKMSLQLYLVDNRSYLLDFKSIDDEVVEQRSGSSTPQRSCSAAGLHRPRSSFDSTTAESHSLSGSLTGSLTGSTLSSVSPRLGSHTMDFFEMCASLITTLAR

[11] = molecular target: Serine/threonine-protein kinase N2 (Homo sapiens) (UniProt Q16513); settings: Compound concentration 1000.0 nM
Serine/threonine-protein kinase N2 (Homo sapiens), sequence (Q16513 whole entry, looked up): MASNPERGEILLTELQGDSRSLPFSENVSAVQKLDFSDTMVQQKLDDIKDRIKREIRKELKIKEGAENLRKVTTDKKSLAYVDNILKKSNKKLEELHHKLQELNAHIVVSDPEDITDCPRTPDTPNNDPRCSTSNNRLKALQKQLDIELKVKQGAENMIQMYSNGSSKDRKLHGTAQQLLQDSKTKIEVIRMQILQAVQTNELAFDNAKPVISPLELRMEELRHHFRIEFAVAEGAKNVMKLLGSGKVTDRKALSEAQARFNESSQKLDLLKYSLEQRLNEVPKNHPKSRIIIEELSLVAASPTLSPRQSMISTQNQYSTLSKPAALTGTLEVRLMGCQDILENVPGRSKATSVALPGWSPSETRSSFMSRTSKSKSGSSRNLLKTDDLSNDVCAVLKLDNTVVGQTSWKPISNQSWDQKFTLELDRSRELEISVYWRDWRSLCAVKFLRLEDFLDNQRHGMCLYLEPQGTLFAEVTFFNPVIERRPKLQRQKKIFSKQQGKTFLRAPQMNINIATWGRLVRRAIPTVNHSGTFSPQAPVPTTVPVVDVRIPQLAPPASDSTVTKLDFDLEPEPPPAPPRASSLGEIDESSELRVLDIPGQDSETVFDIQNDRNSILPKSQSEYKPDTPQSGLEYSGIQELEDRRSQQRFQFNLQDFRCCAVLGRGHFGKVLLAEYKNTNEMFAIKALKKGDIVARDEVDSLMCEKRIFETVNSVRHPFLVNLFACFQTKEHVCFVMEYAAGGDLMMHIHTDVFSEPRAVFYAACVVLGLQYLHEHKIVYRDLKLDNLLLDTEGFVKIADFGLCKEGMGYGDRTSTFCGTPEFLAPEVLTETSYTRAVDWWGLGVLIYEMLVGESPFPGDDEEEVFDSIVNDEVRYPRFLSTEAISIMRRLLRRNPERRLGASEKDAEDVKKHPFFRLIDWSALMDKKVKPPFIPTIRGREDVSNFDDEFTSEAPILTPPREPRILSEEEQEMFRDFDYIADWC

[12] = molecular target: Serine/threonine-protein kinase RIO3 (Homo sapiens) (UniProt O14730); settings: Compound concentration 1000.0 nM
[13] = molecular target: Myosin-IIIa (Homo sapiens) (UniProt Q8NEV4); settings: Compound concentration 1000.0 nM
Myosin-IIIa (Homo sapiens), sequence (Q8NEV4 whole entry): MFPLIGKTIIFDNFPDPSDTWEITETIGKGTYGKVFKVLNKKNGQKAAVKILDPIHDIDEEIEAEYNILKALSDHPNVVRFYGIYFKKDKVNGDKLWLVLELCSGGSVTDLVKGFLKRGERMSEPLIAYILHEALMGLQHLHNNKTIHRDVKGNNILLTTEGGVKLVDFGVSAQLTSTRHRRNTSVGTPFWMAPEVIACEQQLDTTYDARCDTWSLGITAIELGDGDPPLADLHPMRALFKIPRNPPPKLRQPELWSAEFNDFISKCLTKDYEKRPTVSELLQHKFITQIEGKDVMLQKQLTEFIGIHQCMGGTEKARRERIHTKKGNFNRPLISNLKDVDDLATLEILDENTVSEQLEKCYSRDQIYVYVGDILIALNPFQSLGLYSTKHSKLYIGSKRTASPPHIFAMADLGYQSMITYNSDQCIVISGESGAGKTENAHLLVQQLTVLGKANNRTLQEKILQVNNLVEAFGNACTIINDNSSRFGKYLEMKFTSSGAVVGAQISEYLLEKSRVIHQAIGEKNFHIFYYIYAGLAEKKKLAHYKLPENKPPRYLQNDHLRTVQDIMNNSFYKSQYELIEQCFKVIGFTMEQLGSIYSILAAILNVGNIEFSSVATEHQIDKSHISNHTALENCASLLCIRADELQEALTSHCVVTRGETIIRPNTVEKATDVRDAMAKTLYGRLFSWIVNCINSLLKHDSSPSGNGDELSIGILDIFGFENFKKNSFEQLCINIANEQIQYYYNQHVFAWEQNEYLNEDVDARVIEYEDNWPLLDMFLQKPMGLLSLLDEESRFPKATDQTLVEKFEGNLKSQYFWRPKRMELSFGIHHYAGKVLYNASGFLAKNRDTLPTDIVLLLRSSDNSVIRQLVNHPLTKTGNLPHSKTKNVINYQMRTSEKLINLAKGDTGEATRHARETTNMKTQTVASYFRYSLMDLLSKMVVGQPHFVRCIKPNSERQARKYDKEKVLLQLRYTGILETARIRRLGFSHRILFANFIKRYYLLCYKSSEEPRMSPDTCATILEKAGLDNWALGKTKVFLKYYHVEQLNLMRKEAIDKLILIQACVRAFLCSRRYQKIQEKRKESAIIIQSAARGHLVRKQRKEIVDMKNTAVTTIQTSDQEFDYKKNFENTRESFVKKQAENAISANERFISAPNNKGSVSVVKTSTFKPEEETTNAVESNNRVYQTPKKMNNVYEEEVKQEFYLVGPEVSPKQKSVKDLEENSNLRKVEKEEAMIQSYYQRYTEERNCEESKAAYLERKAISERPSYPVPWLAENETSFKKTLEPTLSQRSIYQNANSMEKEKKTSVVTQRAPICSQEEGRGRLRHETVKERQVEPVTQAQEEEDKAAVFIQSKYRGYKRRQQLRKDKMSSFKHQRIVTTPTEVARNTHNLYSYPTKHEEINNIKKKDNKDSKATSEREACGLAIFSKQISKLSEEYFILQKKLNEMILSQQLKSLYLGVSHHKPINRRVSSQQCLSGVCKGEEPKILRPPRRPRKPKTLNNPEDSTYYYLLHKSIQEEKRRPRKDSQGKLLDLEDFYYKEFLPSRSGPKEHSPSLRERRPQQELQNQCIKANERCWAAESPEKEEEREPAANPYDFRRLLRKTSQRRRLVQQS

[14] = molecular target: Serine/threonine-protein kinase STK11 (Homo sapiens) (UniProt Q15831); settings: Compound concentration 1000.0 nM
[15] = molecular target: Serine/threonine-protein kinase Nek11 (Homo sapiens) (UniProt Q8NG66); settings: Compound concentration 1000.0 nM
[16] = molecular target: Phosphatidylinositol 5-phosphate 4-kinase type-2 gamma (Homo sapiens) (UniProt Q8TBX8); settings: Compound concentration 1000.0 nM
[17] = molecular target: Serine/threonine-protein kinase D3 (Homo sapiens) (UniProt O94806); settings: Compound concentration 1000.0 nM
[18] = molecular target: Mitogen-activated protein kinase 14 (Homo sapiens) (UniProt Q16539); settings: Compound concentration 1000.0 nM
[19] = molecular target: Tyrosine-protein kinase Fer (Homo sapiens) (UniProt P16591); settings: Compound concentration 1000.0 nM
Tyrosine-protein kinase Fer (Homo sapiens), sequence (P16591 whole entry, looked up): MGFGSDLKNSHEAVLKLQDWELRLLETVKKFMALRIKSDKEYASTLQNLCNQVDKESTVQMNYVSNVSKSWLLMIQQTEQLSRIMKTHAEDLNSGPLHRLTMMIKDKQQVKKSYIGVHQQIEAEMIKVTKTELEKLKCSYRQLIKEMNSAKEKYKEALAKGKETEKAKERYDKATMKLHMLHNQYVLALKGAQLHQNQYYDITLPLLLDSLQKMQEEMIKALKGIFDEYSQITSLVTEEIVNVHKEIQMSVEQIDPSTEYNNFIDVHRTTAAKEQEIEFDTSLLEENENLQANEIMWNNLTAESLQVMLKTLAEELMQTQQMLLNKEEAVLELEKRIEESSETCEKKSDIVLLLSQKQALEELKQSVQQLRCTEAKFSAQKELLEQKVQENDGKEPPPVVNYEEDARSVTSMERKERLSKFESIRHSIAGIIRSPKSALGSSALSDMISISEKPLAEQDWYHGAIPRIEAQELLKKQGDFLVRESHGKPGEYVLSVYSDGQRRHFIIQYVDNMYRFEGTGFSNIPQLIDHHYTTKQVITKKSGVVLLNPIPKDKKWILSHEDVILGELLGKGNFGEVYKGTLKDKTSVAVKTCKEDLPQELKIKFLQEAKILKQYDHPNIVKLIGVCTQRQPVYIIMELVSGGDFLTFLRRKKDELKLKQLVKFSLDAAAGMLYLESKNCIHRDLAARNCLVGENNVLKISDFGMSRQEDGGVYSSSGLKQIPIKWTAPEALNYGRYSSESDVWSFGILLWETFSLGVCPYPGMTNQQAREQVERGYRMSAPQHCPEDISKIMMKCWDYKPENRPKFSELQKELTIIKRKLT

[20] = molecular target: Hepatocyte growth factor receptor (Homo sapiens) (UniProt P08581); settings: Compound concentration 1000.0 nM
[21] = molecular target: Tyrosine-protein kinase receptor UFO (Homo sapiens) (UniProt P30530); settings: Compound concentration 1000.0 nM
[22] = molecular target: cAMP-dependent protein kinase catalytic subunit alpha (Homo sapiens) (UniProt P17612); settings: Compound concentration 1000.0 nM
[23] = molecular target: Cyclin-dependent kinase 5 (Homo sapiens) (UniProt Q00535); settings: Compound concentration 1000.0 nM
[24] = tested on: Tyrosine-protein kinase ABL1 (Homo sapiens), P00519 [M351T]; settings: Compound concentration 1000.0 nM
[25] = molecular target: Membrane-associated tyrosine- and threonine-specific cdc2-inhibitory kinase (Homo sapiens) (UniProt Q99640); settings: Compound concentration 1000.0 nM
[26] = tested on: Tyrosine-protein kinase ABL1 (Homo sapiens), P00519 [F317L]; settings: Compound concentration 1000.0 nM
[27] = molecular target: Dual specificity mitogen-activated protein kinase kinase 6 (Homo sapiens) (UniProt P52564); settings: Compound concentration 1000.0 nM
Dual specificity mitogen-activated protein kinase kinase 6 (Homo sapiens), sequence (P52564 whole entry): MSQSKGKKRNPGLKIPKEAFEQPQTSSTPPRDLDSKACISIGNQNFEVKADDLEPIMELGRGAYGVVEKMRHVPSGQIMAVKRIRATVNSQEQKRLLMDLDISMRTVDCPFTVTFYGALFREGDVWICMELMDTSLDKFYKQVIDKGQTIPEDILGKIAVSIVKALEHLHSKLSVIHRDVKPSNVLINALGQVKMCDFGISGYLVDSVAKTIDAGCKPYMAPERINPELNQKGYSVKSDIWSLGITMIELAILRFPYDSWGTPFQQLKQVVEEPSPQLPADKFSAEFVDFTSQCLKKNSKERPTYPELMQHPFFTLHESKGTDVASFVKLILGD

[28] = tested on: Tyrosine-protein kinase ABL1 (Homo sapiens), P00519 [Q252H]; settings: Compound concentration 1000.0 nM
[29] = molecular target: Serine/threonine-protein kinase MRCK beta (Homo sapiens) (UniProt Q9Y5S2); settings: Compound concentration 1000.0 nM
[30] = tested on: ALK tyrosine kinase receptor (Homo sapiens), Q9UM73 [C1156Y]; settings: Compound concentration 1000.0 nM
[31] = molecular target: Serine/threonine-protein kinase/endoribonuclease IRE1 (Homo sapiens) (UniProt O75460); settings: Compound concentration 1000.0 nM
[32] = molecular target: Histamine H1 receptor (Homo sapiens) (UniProt P35367); settings: Compound concentration 10.0 uM
[33] = molecular target: Serine/threonine-protein kinase PLK2 (Homo sapiens) (UniProt Q9NYY3); settings: Compound concentration 1000.0 nM
[34] = molecular target: Inhibitor of nuclear factor kappa-B kinase subunit epsilon (Homo sapiens) (UniProt Q14164); settings: Compound concentration 1000.0 nM
[35] = molecular target: Mitogen-activated protein kinase kinase kinase kinase 2 (Homo sapiens) (UniProt Q12851); settings: Compound concentration 1000.0 nM
[36] = molecular target: Dual specificity tyrosine-phosphorylation-regulated kinase 1B (Homo sapiens) (UniProt Q9Y463); settings: Compound concentration 1000.0 nM
[37] = molecular target: T1, Alpha-2B adrenergic receptor (Homo sapiens) (UniProt P18089); settings: Compound concentration 10.0 uM
T1 sequence (whole entry): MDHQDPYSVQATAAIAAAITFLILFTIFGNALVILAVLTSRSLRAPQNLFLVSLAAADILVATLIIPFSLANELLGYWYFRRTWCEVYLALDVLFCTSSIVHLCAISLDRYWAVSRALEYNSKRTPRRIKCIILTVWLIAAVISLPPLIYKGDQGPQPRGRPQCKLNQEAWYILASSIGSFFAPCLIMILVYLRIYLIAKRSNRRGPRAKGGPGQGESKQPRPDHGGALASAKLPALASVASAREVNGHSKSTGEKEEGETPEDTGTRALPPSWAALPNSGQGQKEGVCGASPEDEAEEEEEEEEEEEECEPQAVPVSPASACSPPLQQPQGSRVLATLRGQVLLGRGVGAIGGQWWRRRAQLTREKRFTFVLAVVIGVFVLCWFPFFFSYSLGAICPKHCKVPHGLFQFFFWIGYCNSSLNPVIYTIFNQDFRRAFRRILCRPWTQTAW

[38] = molecular target: Serine/threonine-protein kinase PAK 3 (Homo sapiens) (UniProt O75914); settings: Compound concentration 1000.0 nM
[39] = molecular target: Serine/threonine-protein kinase WNK2 (Homo sapiens) (UniProt Q9Y3S1); settings: Compound concentration 1000.0 nM

| Compound | residual activity [1] [%] | residual activity [2] [%] | residual activity [3] [%] | residual activity [4] [%] | inhibition [5] [%] | residual activity [6] [%] | residual activity [7] [%] | residual activity [8] [%] | residual activity [9] [%] | residual activity [10] [%] | residual activity [11] [%] | residual activity [12] [%] | residual activity [13] [%] | residual activity [14] [%] | residual activity [15] [%] | residual activity [16] [%] | residual activity [17] [%] | residual activity [18] [%] | residual activity [19] [%] | residual activity [20] [%] | other results |
| --- | --- | --- | --- | --- | --- | --- | --- | --- | --- | --- | --- | --- | --- | --- | --- | --- | --- | --- | --- | --- | --- |
| O=C(NCc1ncc(C(F)(F)F)cc1Cl)c1ccc2c(c1)C1(CCS(=O)(=O)CC1)[C@H](C1CC1)N2S(=O)(=O)c1ccc(F)cc1 [BAY-784] | 100 | 100 | 94 | 100 | 18.1 | 100 | 100 | 85 | 85 | 100 | 70 | 69 | 100 | 100 | 100 | 100 | 100 | 100 | 100 | 100 | residual activity [21]: 100%; residual activity [22]: 86%; residual activity [23]: 0%; residual activity [24]: 91%; residual activity [25]: 100%; residual activity [26]: 74%; residual activity [27]: 100%; residual activity [28]: 70%; residual activity [29]: 100%; residual activity [30]: 82%; residual activity [31]: 78%; inhibition [32]: 24.6%; residual activity [33]: 76%; residual activity [34]: 77%; residual activity [35]: 100%; residual activity [36]: 100%; inhibition [37]: 13.5%; residual activity [38]: 91%; residual activity [39]: 97% |
| O=C(NCc1ncc(C(F)(F)F)cc1Cl)c1ccc2c(c1)C1(CCS(=O)(=O)CC1)[C@@H](C1CC1)N2S(=O)(=O)c1ccc(F)cc1 [BAY-786] | 100 | 84 | 87 | 100 | 14.4 | 87 | 97 | 69 | 100 | 100 | 68 | 72 | 100 | 100 | 100 | 100 | 100 | 100 | 100 | 81 | residual activity [21]: 100%; residual activity [22]: 98%; residual activity [23]: 89%; residual activity [24]: 94%; residual activity [25]: 92%; residual activity [26]: 68%; residual activity [27]: 100%; residual activity [28]: 87%; residual activity [29]: 100%; residual activity [30]: 100%; residual activity [31]: 65%; inhibition [32]: 8.01%; residual activity [33]: 74%; residual activity [34]: 82%; residual activity [35]: 91%; residual activity [36]: 100%; inhibition [37]: -1.68%; residual activity [38]: 89%; residual activity [39]: 0% |

From ChEMBL document CHEMBL4507266, “Data for DCP probe BAY-784” (2021)
